Measured values: patent US20250188038A1, “CRYSTALLINE FORMS OF N-{[(S)-{[3-(4-CHLOROPHENYL)-4-PHENYL-4,5-DIHYDRO-1H-PYRAZOL-1-YL][4-(TRIFLUOROMETHYL)BENZENE” (Novo Nordisk A/S, priority 2022, published 2025)
In brackets after ≈: the same amount, converted by molar mass. Entries after “also recorded” stand apart in the source; their conditions may differ. Values belong to the compound of their own block, whether it stands above or below them.

What was measured:
Format in all cases: physicochemical
[1] = Approximate solubility of Form A in 20 single solvents at RT; details: thermodynamic from solid
Experimental: Approximate solubility of Form A was determined in 20 single solvents at RT, respectively. Approximately 2 mg of Form A was added into a 3-mL glass vial. Corresponding solvents were added stepwise (50 μL-50 μL-200 μL-700 μL) into the vials until the solids were dissolved visually or a total volume of 1 mL was reached. The ranges of approximate solubility were calculated according to the mass of sample, volume of solvent and observation. The results summarized in Table 2 were used to guide the solvent selection in polymorph screening.

[2] = Slurry competition of the six anhydrates in n-butanol (thermodynamic assessment); details: all anhydrates in equal mass ratios, RT and 50° C.
Experimental: A total of six anhydrates, Forms A, C, D, E, N, and Q were observed. A thermodynamic assessment of all anhydrates was performed by slurrying all anhydrates in equal mass ratios in a non-solvating solvent, n-Butanol, at RT and 50° C.

[3] = Slurry competition of Form K and Form C at various water activities (critical water activity); details: for Relative stability, Form K vs Form C slurry: EtOH/H2O
Source text: One hydrate (Form K) was observed and found to be a hemi-hydrate. […] It was suspected that EtOH may be forming a solvate that favors the formation of Form K because at higher water activities, the hydrate should be more thermodynamically stable. The values and results for obtaining the critical water activity follows the laws of thermodynamics and the results obtained from this experiment can be transferred to another solvent/H2O system. Additional critical water activity experiments were performed in acetone/H2O at Aw=0.5 and 0.9 using Form K and Form C.

[4] = Ambient drying of wet cake solids, form followed by XRPD
Experimental: Form A obtained from anti-solvent addition in ACN/H2O was further investigated by analyzing the wet solids by XRPD. The sample was covered with 3511 Kapton film to minimize the solvent evaporation from the wet cake. A unique pattern, different from Form A was observed indicating a labile solvate phase forms in this solvent system.
Form B was obtained by temperature cycling in IPA. The formation of Form B was also observed in IPA slurry at RT and 60° C. Form B was further characterized by analyzing the wet cake by XRPD. The sample on the XRPD sample holder was covered by 3511 Kapton Film to minimize the solvent evaporation from the sample. […] Comparing the KF and TGA results, it was concluded that Form B is an IPA solvate, more specifically, a hemi-solvate determined by calculating the API:Solvent stoichiometry from the TGA weight loss to be 1:0.6.
(§1) Form D was obtained by temperature cycling in toluene. The formation of Form D was also observed in 60° C. slurry and slow cooling using toluene. Form D was further characterized by analyzing the wet solids by XRPD. The sample on the XRPD sample holder was covered by 3511 Kapton Film to minimize the solvent evaporation from the sample. […] The minimal weight loss observed indicated an anhydrous phase.
as §1, with “Form E” for “Form D”, “in IPAc/MTBE (1:3 v/v).” for “in toluene.”, “in anti-solvent addition, crash cooling, and” for “in 60° C.”, “slurry at RT experiments” for “slurry and slow cooling”, “using MTBE, 2-MeTHF, or” for “using”
Form F was obtained by temperature cycling in THF/H2O (0.92/0.08 v/v Aw=0.2). The formation of Form F was also observed in RT slurry in THF/H2O at Aw=0.4 and 0.6, and in temperature cycling in THF/H2O (1:3). Form F was further characterized by analyzing the wet solids by XRPD. The sample on the XRPD sample holder was covered by 3511 Kapton film to minimize the solvent evaporation. […] Comparing the KF and TGA results, it was concluded that Form F is likely a THF solvate.

Compound: CC(=O)N/C(N)=N/C(=N\S(=O)(=O)c1ccc(C(F)(F)F)cc1)N1C[C@H](c2ccccc2)C(c2ccc(Cl)cc2)=N1 [Form A, N-{[(S)-{[3-(4-chlorophenyl)-4-phenyl-4,5-dihydro-1H-pyrazol-1-yl][4-(trifluoromethyl)benzenesulfonamido]methylidene}amino]methanimidoyl}acetamide]
solubility ([1]; Anisole, organic solvent or mixture): > 10000 µg/mL
solubility ([1]; EtOH, organic solvent or mixture): > 10000 µg/mL
solubility ([1]; IPA, organic solvent or mixture): < 3000 µg/mL
solubility ([1]; MTBE, organic solvent or mixture): < 3000 µg/mL
solubility ([1]; Toluene, organic solvent or mixture): 2000 to 10000 µg/mL (≈ 3.38 to 16.9 mM)
solubility ([1]; Water): < 3000 µg/mL
solubility ([1]; n-heptane, organic solvent or mixture): < 3000 µg/mL
Relative thermodynamic stability of anhydrates (outcome of slurry competition) [2]: conversion of all anhydrates to Form C

Compound: CC(=O)N/C(N)=N/C(=N\S(=O)(=O)c1ccc(C(F)(F)F)cc1)N1C[C@H](c2ccccc2)C(c2ccc(Cl)cc2)=N1 [Form C, N-{[(S)-{[3-(4-chlorophenyl)-4-phenyl-4,5-dihydro-1H-pyrazol-1-yl][4-(trifluoromethyl)benzenesulfonamido]methylidene}amino]methanimidoyl}acetamide]
Relative thermodynamic stability of anhydrates (outcome of slurry competition) [2]: thermodynamically most stable anhydrous form; also recorded: most stable anhydrate
Relative stability, Form K vs Form C slurry ([3]; Aw>0.9, equal mass ratios): more stable

Compound: CC(=O)N/C(N)=N/C(=N\S(=O)(=O)c1ccc(C(F)(F)F)cc1)N1C[C@H](c2ccccc2)C(c2ccc(Cl)cc2)=N1 [Form D, N-{[(S)-{[3-(4-chlorophenyl)-4-phenyl-4,5-dihydro-1H-pyrazol-1-yl][4-(trifluoromethyl)benzenesulfonamido]methylidene}amino]methanimidoyl}acetamide]
Relative thermodynamic stability of anhydrates (outcome of slurry competition) [2]: conversion of all anhydrates to Form C

Compound: CC(=O)N/C(N)=N/C(=N\S(=O)(=O)c1ccc(C(F)(F)F)cc1)N1C[C@H](c2ccccc2)C(c2ccc(Cl)cc2)=N1 [Form E, N-{[(S)-{[3-(4-chlorophenyl)-4-phenyl-4,5-dihydro-1H-pyrazol-1-yl][4-(trifluoromethyl)benzenesulfonamido]methylidene}amino]methanimidoyl}acetamide]
Relative thermodynamic stability of anhydrates (outcome of slurry competition) [2]: conversion of all anhydrates to Form C

Compound: CC(=O)N/C(N)=N/C(=N\S(=O)(=O)c1ccc(C(F)(F)F)cc1)N1C[C@H](c2ccccc2)C(c2ccc(Cl)cc2)=N1 [Form G, N-{[(S)-{[3-(4-chlorophenyl)-4-phenyl-4,5-dihydro-1H-pyrazol-1-yl][4-(trifluoromethyl)benzenesulfonamido]methylidene}amino]methanimidoyl}acetamide]
Solid form conversion upon ambient drying [4]: converted to Form F

Further lines, results first:

Solid form conversion upon ambient drying [4]: converted to Form D
Compound: CC(=O)N/C(N)=N/C(=N\S(=O)(=O)c1ccc(C(F)(F)F)cc1)N1C[C@H](c2ccccc2)C(c2ccc(Cl)cc2)=N1 [Form H, N-{[(S)-{[3-(4-chlorophenyl)-4-phenyl-4,5-dihydro-1H-pyrazol-1-yl][4-(trifluoromethyl)benzenesulfonamido]methylidene}amino]methanimidoyl}acetamide]

Solid form conversion upon ambient drying [4]: converted to Form B
Compound: CC(=O)N/C(N)=N/C(=N\S(=O)(=O)c1ccc(C(F)(F)F)cc1)N1C[C@H](c2ccccc2)C(c2ccc(Cl)cc2)=N1 [Form I, N-{[(S)-{[3-(4-chlorophenyl)-4-phenyl-4,5-dihydro-1H-pyrazol-1-yl][4-(trifluoromethyl)benzenesulfonamido]methylidene}amino]methanimidoyl}acetamide]

Stability of the hydrate (conclusion of critical water activity experiments) [3]: not a stable hydrate
Relative stability, Form K vs Form C slurry ([3]; 0.1<Aw<0.9, equal mass ratios): more stable
Outcome of Form K and Form C slurry ([3]; acetone/H2O, Aw=0.5 and 0.9): conversion to Form C
Compound: CC(=O)N/C(N)=N/C(=N\S(=O)(=O)c1ccc(C(F)(F)F)cc1)N1C[C@H](c2ccccc2)C(c2ccc(Cl)cc2)=N1 [Form K, N-{[(S)-{[3-(4-chlorophenyl)-4-phenyl-4,5-dihydro-1H-pyrazol-1-yl][4-(trifluoromethyl)benzenesulfonamido]methylidene}amino]methanimidoyl}acetamide]

Relative thermodynamic stability of anhydrates (outcome of slurry competition) [2]: conversion of all anhydrates to Form C
Compound: CC(=O)N/C(N)=N/C(=N\S(=O)(=O)c1ccc(C(F)(F)F)cc1)N1C[C@H](c2ccccc2)C(c2ccc(Cl)cc2)=N1 [Form N, N-{[(S)-{[3-(4-chlorophenyl)-4-phenyl-4,5-dihydro-1H-pyrazol-1-yl][4-(trifluoromethyl)benzenesulfonamido]methylidene}amino]methanimidoyl}acetamide]

Solid form conversion upon ambient drying [4]: converted to Form E
Compound: CC(=O)N/C(N)=N/C(=N\S(=O)(=O)c1ccc(C(F)(F)F)cc1)N1C[C@H](c2ccccc2)C(c2ccc(Cl)cc2)=N1 [Form P, N-{[(S)-{[3-(4-chlorophenyl)-4-phenyl-4,5-dihydro-1H-pyrazol-1-yl][4-(trifluoromethyl)benzenesulfonamido]methylidene}amino]methanimidoyl}acetamide]

Relative thermodynamic stability of anhydrates (outcome of slurry competition) [2]: conversion of all anhydrates to Form C
Compound: CC(=O)N/C(N)=N/C(=N\S(=O)(=O)c1ccc(C(F)(F)F)cc1)N1C[C@H](c2ccccc2)C(c2ccc(Cl)cc2)=N1 [Form Q, N-{[(S)-{[3-(4-chlorophenyl)-4-phenyl-4,5-dihydro-1H-pyrazol-1-yl][4-(trifluoromethyl)benzenesulfonamido]methylidene}amino]methanimidoyl}acetamide]
